Columns and labels:
Assay in all cases: Test B pre-/postemergence plant response
Type in all cases: in vivo
[1] = test system: blackgrass (Alopecurus myosuroides); conditions: for Blackgrass plant response rating: 8 g ai/ha
Excerpt: (§1) Seeds of plant species selected from blackgrass (Alopecurus myosuroides), downy bromegrass (Bromus tectorum), green foxtail (Setaria viridis), Italian ryegrass (Lolium multiflorum), wheat (Triticum aestivum), wild oat (Avena fatua), catchweed bedstraw (Galium aparine), bermudagrass (Cynodon dactylon), surinam grass (Brachiaria decumbens), cocklebur (Xanthium strumarium), corn (Zea mays), large crabgrass (Digitaria sanguinalis), woolly cupgrass (Eriochloa villosa), giant foxtail (Setaria faberii), goosegrass (Eleusine indica), johnsongrass (Sorghum halepense), kochia (Kochia scoparia), lambsquarters (Chenopodium album), morningglory (Ipomoea coccinea), eastern black (E.B.) nightshade (Solanum ptycanthum), yellow nutsedge (Cyperus esculentus), pigweed (Amaranthus retroflexus), common ragweed (Ambrosia elation), Russian thistle (Salsola iberica), soybean (Glycine max), common (oilseed) sunflower (Helianthus annuus), and velvetleaf (Abutilon theophrasti) were planted and treated preemergence with test chemicals formulated in a non-phytotoxic solvent mixture which included a surfactant.
(§2) At the same time, plants selected from these crop and weed species and also winter barley (Hordeum vulgare), canarygrass (Phalaris minor), chickweed (Stellaria media) and windgrass (Apera spica-venti) were treated with postemergence applications of some of the test chemicals formulated in the same manner. Plants ranged in height from 2 to 18 cm (1- to 4-leaf stage) for postemergence treatments.
(§3) Plant species in the flooded paddy test consisted of rice (Oryza sativa), umbrella sedge (Cyperus difformis), ducksalad (Heteranthera limosa) and barnyardgrass (Echinochloa crus-galli) grown to the 2-leaf stage for testing. At time of treatment, test pots were flooded to 3 cm above the soil surface, treated by application of test compounds directly to the paddy water, and then maintained at that water depth for the duration of the test. Treated plants and controls were maintained in a greenhouse for 13 to 15 days, after which time all species were compared to controls and visually evaluated. Plant response ratings, summarized in Table B, are based on a scale of 0 to 100 where 0 is no effect and 100 is complete control. A dash (-) response means no test result.

[2] = test system: catchweed bedstraw (Galium aparine); conditions: Preemergence, scale 0 to 100
Excerpt: as §1, §2, §3

[3] = test system: common (oilseed) sunflower (Helianthus annuus); conditions: Preemergence
Excerpt: as §1, §2, §3

[4] = test system: common ragweed (Ambrosia elation)
Excerpt: as §1, §2, §3

[5] = test system: corn (Zea mays)
Excerpt: as §1, §2, §3

[6] = test system: downy bromegrass (Bromus tectorum); conditions: for Bromegrass, Downy plant response rating: 8 g ai/ha
Excerpt: as §1, §2, §3

[7] = test system: giant foxtail (Setaria faberii)
Excerpt: as §1, §2, §3

[8] = test system: kochia (Kochia scoparia)
Excerpt: as §1, §2, §3

[9] = test system: lambsquarters (Chenopodium album)
Excerpt: as §1, §2, §3

[10] = test system: pigweed (Amaranthus retroflexus)
Excerpt: as §1, §2, §3

[11] = test system: velvetleaf (Abutilon theophrasti)
Excerpt: as §1, §2, §3

[12] = test system: wild oat (Avena fatua)
Excerpt: as §1, §2, §3

[13] = test system: woolly cupgrass (Eriochloa villosa)
Excerpt: as §1, §2, §3

[14] = test system: yellow nutsedge (Cyperus esculentus)
Excerpt: as §1, §2, §3

[15] = Postemergence, 16 g ai/ha, scale 0 to 100
[16] = Postemergence, 31 g ai/ha, scale 0 to 100
[17] = Postemergence, 62 g ai/ha, scale 0 to 100, 0 no effect, 100 complete control
[18] = Preemergence, 16 g ai/ha, scale 0 to 100 (0 no effect, 100 complete control)
[19] = Preemergence, 31 g ai/ha, 0 to 100 scale, 0 no effect, 100 complete control
[20] = Preemergence, 62 g ai/ha, scale 0 to 100
[21] = 8 g ai/ha, postemergence, 0-100 scale
[22] = Preemergence, 31 g ai/ha, scale 0 to 100 (0 no effect, 100 complete control)
[23] = Preemergence, 8 g ai/ha, scale 0 to 100
[24] = Preemergence, 16 g ai/ha, scale 0 to 100

## Cc1cc(-c2ccc(Cl)cc2)nn1-c1c(OC(=O)Oc2ccccc2)cnn(C)c1=O [Compound 54]
[1]; postemergence, 0-100 scale
  Blackgrass plant response rating: 45
[1]; [15]
  Plant response rating, Blackgrass: 45
[1]; [16]
  Plant response rating, Blackgrass: 70
[1]; [17]
  Plant response rating, Blackgrass: 70
[1]; [18]
  Plant response rating, Blackgrass: 90
[1]; [19]
  Plant response rating, Blackgrass: 90
[1]; [20]
  Plant response rating, Blackgrass: 90
[1]; Preemergence, scale 0 to 100
  Blackgrass plant response rating: 60
[2]; 62 g ai/ha
  Plant response rating, Galium: 0
[2]; 8 g ai/ha
  Galium plant response rating: 0
[2]; 16 g ai/ha
  Galium plant response rating: 0
[3]; 31 g ai/ha, scale 0 to 100 (0 no effect, 100 complete control)
  Plant response rating, Sunflower: 0
[3]; 62 g ai/ha, scale 0 to 100
  Plant response rating, Sunflower: 0
[3]; 8 g ai/ha, scale 0 to 100
  Sunflower plant response rating: 0
[3]; 16 g ai/ha, scale 0 to 100
  Sunflower plant response rating: 0
[4]; [21]
  Ragweed plant response rating: 0
[4]; [15]
  Plant response rating, Ragweed: 0
[4]; [16]
  Plant response rating, Ragweed: 0
[4]; [17]
  Plant response rating, Ragweed: 0
[4]; [22]
  Plant response rating, Ragweed: 0
[4]; [20]
  Plant response rating, Ragweed: 0
[4]; [23]
  Ragweed plant response rating: 0
[4]; [24]
  Ragweed plant response rating: 0
[5]; [21]
  Corn plant response rating: 0
[5]; [15]
  Plant response rating, Corn: 0
[5]; [16]
  Plant response rating, Corn: 25
[5]; [17]
  Plant response rating, Corn: 100
[5]; [19]
  Plant response rating, Corn: 65
[5]; [20]
  Plant response rating, Corn: 85
[5]; [23]
  Corn plant response rating: 0
[5]; [24]
  Corn plant response rating: 0
[6]; postemergence, 0-100 scale
  Bromegrass, Downy plant response rating: 5
[6]; [15]
  Plant response rating, Bromegrass, Downy: 50
[6]; [16]
  Plant response rating, Bromegrass, Downy: 50
[6]; [17]
  Plant response rating, Bromegrass, Downy: 70
[6]; [18]
  Plant response rating, Bromegrass, Downy: 0
[6]; [19]
  Plant response rating, Bromegrass, Downy: 70
[6]; [20]
  Plant response rating, Bromegrass, Downy: 85
[6]; Preemergence, scale 0 to 100
  Bromegrass, Downy plant response rating: 0
[7]; [21]
  Foxtail, Giant plant response rating: 85
[7]; [15]
  Plant response rating, Foxtail, Giant: 98
[7]; [16]
  Plant response rating, Foxtail, Giant: 100
[7]; [17]
  Plant response rating, Foxtail, Giant: 100
[7]; [19]
  Plant response rating, Foxtail, Giant: 20
[7]; [20]
  Plant response rating, Foxtail, Giant: 55
[7]; [23]
  Foxtail, Giant plant response rating: 0
[7]; [24]
  Foxtail, Giant plant response rating: 0
[8]; [21]
  Kochia plant response rating: 0
[8]; [15]
  Plant response rating, Kochia: 0
[8]; [16]
  Plant response rating, Kochia: 0
[8]; [17]
  Plant response rating, Kochia: 0
[8]; [19]
  Plant response rating, Kochia: 0
[9]; [21]
  Lambsquarters plant response rating: 0
[9]; [15]
  Plant response rating, Lambsquarters: 0
[9]; [16]
  Plant response rating, Lambsquarters: 0
[9]; [17]
  Plant response rating, Lambsquarters: 0
[9]; [19]
  Plant response rating, Lambsquarters: 0
[9]; [20]
  Plant response rating, Lambsquarters: 0
[9]; [23]
  Lambsquarters plant response rating: 0
[9]; [24]
  Lambsquarters plant response rating: 0
[10]; [21]
  Pigweed plant response rating: 0
[10]; [15]
  Plant response rating, Pigweed: 0
[10]; [16]
  Plant response rating, Pigweed: 0
[10]; [17]
  Plant response rating, Pigweed: 0
[10]; [22]
  Plant response rating, Pigweed: 0
[10]; [20]
  Plant response rating, Pigweed: 0
[10]; [23]
  Pigweed plant response rating: 0
[10]; [24]
  Pigweed plant response rating: 0
[11]; [21]
  Velvetleaf plant response rating: 0
[11]; [15]
  Plant response rating, Velvetleaf: 0
[11]; [16]
  Plant response rating, Velvetleaf: 0
[11]; [17]
  Plant response rating, Velvetleaf: 0
[11]; [22]
  Plant response rating, Velvetleaf: 0
[11]; Preemergence, 62 g ai/ha, 0 to 100 scale, 0 no effect, 100 complete control
  Plant response rating, Velvetleaf: 0
[11]; [23]
  Velvetleaf plant response rating: 0
[11]; [24]
  Velvetleaf plant response rating: 0
[12]; [21]
  Oat, Wild plant response rating: 85
[12]; [15]
  Plant response rating, Oat, Wild: 90
[12]; [16]
  Plant response rating, Oat, Wild: 98
[12]; [17]
  Plant response rating, Oat, Wild: 98
[12]; [22]
  Plant response rating, Oat, Wild: 75
[12]; [20]
  Plant response rating, Oat, Wild: 95
[12]; [23]
  Oat, Wild plant response rating: 40
[12]; [24]
  Oat, Wild plant response rating: 70
[13]; [21]
  Cupgrass, Woolly plant response rating: 80
[13]; [15]
  Plant response rating, Cupgrass, Woolly: 90
[13]; [16]
  Plant response rating, Cupgrass, Woolly: 98
[13]; [17]
  Plant response rating, Cupgrass, Woolly: 100
[13]; [19]
  Plant response rating, Cupgrass, Woolly: 0
[13]; [20]
  Plant response rating, Cupgrass, Woolly: 0
[13]; [23]
  Cupgrass, Woolly plant response rating: 0
[13]; [24]
  Cupgrass, Woolly plant response rating: 0
[14]; [21]
  Nutsedge, Yellow plant response rating: 0
[14]; [15]
  Plant response rating, Nutsedge, Yellow: 0
[14]; [16]
  Plant response rating, Nutsedge, Yellow: 0
[14]; [17]
  Plant response rating, Nutsedge, Yellow: 0
[14]; [22]
  Plant response rating, Nutsedge, Yellow: 0
[14]; [20]
  Plant response rating, Nutsedge, Yellow: 0
[14]; [23]
  Nutsedge, Yellow plant response rating: 0
[14]; [24]
  Nutsedge, Yellow plant response rating: 0

Source: patent US20100267561A1, “HERBICIDAL PYRIDAZINONE DERIVATIVES” (priority 2007, published 2010)
